Tests used:
HUVEC cells = test: Migration assay, HUVEC cells; assay type: cell-based, human; conditions: 400 nM particles, 24 hour, before and after addition of inhibitor
Protocol: M21 cells: M21 cells were seeded (6×10^4 cells/well) using a migration kit (Oris™ Collagen I coated plate, […] TEC). Twenty-four hours after seeding the cells, stoppers in the plate were removed. Fresh culture media (100 μl) supplemented with 0.2% FBS was introduced and cRGDY-PEG-C-dots were added at several concentrations: 25, 100 and 400 nM. Every 24 hours thereafter, media was replaced, along with new particles, over a 72 hr time interval. Prior to incubating the plate at 37° C. overnight, time zero images were captured by the Axiovert 200M microscope (Carl Zeiss) using a 5× (0.15 NA) objective and using a scan slide module in the Metamorph software (molecular devices, PA). Serial microscopy was then performed and images captured every 24 hrs for a total of 96 hours post-incubation. The data were analyzed by using ImageJ software. […]
Phase contrast images captured for migration studies were analyzed using ImageJ 1.45s (National Institutes of Health, rsbweb.nih.gov/ij/) in order to quantify the extent of cell migration (i.e., area closure) for M21 cells and HUVECs. […] The enclosed area for each image was measured (pixels) and used to calculate percent closure relative to time zero (following particle addition and media replacement) as follows: difference in area at a given time point (24, 48, 72 or 96 hr) and at time zero divided by the same area at time zero multiplied by 100. […]

FAK pathway = test: Western blot of FAK pathway signaling in M21 cells; assay type: cell-based, human; conditions: M21 cells exposed to 100 nM cRGDY-PEG-C dots
Protocol: To determine whether […] integrin-binding cRGDY-PEG-C-dots modulates the activity of these pathways, we treated serum-deprived (0.2% FCS) M21 cells with 100 nM of cRGDY-PEG-C-dots for 2 hrs at 37° C.; serum-deprived cells treated with 0.2% FCS alone served as controls. […] These findings, depicted graphically as normalized intensity ratios, have been expressed relative to their respective total protein levels, and normalized to corresponding values measured under control conditions (FIG. 40C).
M21 cells (1×10^6 cells/six wells plate) were grown in six wells coated with collagen (10 mg/ml), and made quiescent by growing under serum-deprived conditions. The medium was then changed to 0.2% FCS, and different concentrations (25-400 nM) of cRGDY-PEG-C-dots were added (37° C., 0.5-8 hours). […] Protein concentrations were determined by the bicinchoninic acid assay (BCA, Thermo Scientific, Rockford, Ill.). […]
In order to quantify the differences in the size and intensity between Western blot bands, we performed densitometry of phosphorylated and total protein intermediates using Photoshop CS2 (Adobe, San Jose, Calif.). […]

[1] = tested on: melanoma nodal metastases; set-up: species or system Sinclair miniature swine; conditions: in vivo
Protocol: Spontaneous melanoma Sinclair miniature swine (10-12 kg, Sinclair Research Center, MO) were injected intravenously with 5 mCi ^18F-fluoro-deoxyglucose (^18F-FDG) for whole-body screening of nodal and/or organ metastases. Miniswine underwent 1-hr dynamic ^18F-FDG PET whole body PET scan using a clinical PET scanner 40 minutes after injection to screen for metastatic disease, followed by CT scan acquisition for anatomic localization. […]
Miniswine were taken to the operating room for identification of nodes. Optical fluorescence imaging was performed using large field-of-view near infrared fluorescence camera system, smaller field-of-view modified endoscope, and a modified stereomacroscope for obtaining higher resolution fluorescence images within the exposed surgical bed. […]
The primary melanoma skin lesion was excised, and an incision made to allow access to the sentinel node(s). […] Specimens were sent for histological assessment for metastases and optical confocal microscopy to confirm the presence of both malignancy and nanoparticle fluorescence.
Following harvest of the sentinel nodes, the entire lymph node basin was excised and further evaluated using histological methods (with immunohistochemical markers for melanoma as needed), fluorescence microscopy, and the hand-held PET probe for correlative purposes. […]

[2] = Montet et al. 2006; cited from earlier work

## CS(=O)(=O)c1cccc(CNc2nc(Nc3ccc4c(c3)CCC(=O)N4)ncc2C(F)(F)F)c1 [PF-573228]
HUVEC cells
  Percentage change in mean areas of closure relative to controls: +3%
FAK pathway; 250, 500 nM inhibitor
  Inhibition of MEK or Erk phosphorylation: observed only at the higher inhibitor concentration
FAK pathway; two inhibitor concentrations (250, 500 nM)
  phosphorylation of FAK on Tyr397 and Src: inhibition of the phosphorylation of FAK on Tyr^397 and Src

## ^18F-fluorodeoxyglucose [^18F-FDG]
[1]
  discrimination of metastatic disease from inflammation: failed to detect metastatic disease, while identifying inflammatory and other metabolically active sites

## cRGD
[2]
  published blood T1/2 / blood residence half-time: about 13 minutes

Source: patent US11419955B2, “Multimodal silica-based nanoparticles” (Sloan-Kettering Institute for Cancer Research, priority 2009, dated 2022)
